# Paper PMC7038139, “Novel Peptide CM 7 Targeted c-Met with Antitumor Activity” (Molecules, 2020)
# How the values were obtained:
# human c-Met protein = assay: Affinity to c-Met protein (as stated in abstract and discussion); assay type: binding; conditions: in words only; Kd not given
# MKN-45 tumor xenografts = assay: MKN-45 xenograft antitumor activity in nude mice; assay type: in vivo, Human
# Protocol: (§1) Four-to-five-week-old female Balb/c nude mice, housed in specific pathogen-free conditions, were used to evaluate antitumor activity in vivo. All animal studies were performed according to the institutional ethical guidelines for animal care.
# (§2) MKN-45 cells at a density of 5 × 10^6 in 200 μL were injected subcutaneously into the flank of the mice. CM 7 (5, 10, or 20 mg/kg) was injected subcutaneously for each group twice a day for four weeks. As a positive control, Crizotinib (50 mg/kg) was given to tumor-bearing mice by gavage once a day for a total of 28 days. The tumor volume was measured with calipers in two dimensions: tumor volume = 1/2 × a × b^2, where a is the length of the tumor, and b is the width of the tumor. All of the mice were sacrificed on day 42, and the tumor tissue was isolated and weighed.
# [1] = Body weight / tolerability in tumor-bearing mice; assay type: in vivo, Balb/c nude mice; conditions: each peptide group (5, 10, 20 mg/kg s.c. twice a day, 28 days)
# Protocol: as §1, §2
# Figure S1: The chemical structure, molecular mass, and purity of peptide FITC-CM 7. […] (C) The purity of peptide FITC-CM 7 was determined by high-performance liquid chromatography (HPLC) to be 97.3%. […] (C) The purity of peptide FITC-CM 7 was determined by HPLC to be 96.7%. Figure S3: The mean body weight of tumor-bearing mice treated daily for four weeks with vehicle (0.2% DMSO) or Crizotinib (50 mg/kg) by gavage, and the tested peptide CM 7 or vehicle (PBS) that was subcutaneously injected twice a day for four weeks was measured every other day during the study. […]
# [2] = tested on: c-Met and its downstream signaling molecules in U87 cells; assay: Western blot of c-Met signaling, U87 (HGF-induced); assay type: cell-based, human; conditions: 24 h
# Protocol: Western blot analysis was performed using an extraction buffer as described. MKN-45, MKN-28 and U87 cells were cultured in serum-free medium overnight, then treated with the indicated dose of peptide CM 7 for 24 h at 37 °C after stimulated without or with HGF for 15 min. Next, total cell lysates were separated by 12% SDS-polyacrylamide gel (SDS-PAGE) and transferred to polyvinylidene difluoride (PVDF) membranes. The PVDF membranes were probed with following primary antibodies: anti-phospho-Met (Tyr1234/1235, (Cell Signaling Technology, Beverly, MA, USA), anti-Met (Affinity, USA), anti-phospho-AKT (Ser473, (Affinity, USA)), anti-AKT (Affinity, USA), anti-phospho-Erk1/2 (Thr202/Tyr204, (Affinity, USA)), anti-Erk1/2 (Affinity, USA), anti-E-cadherin (WanleiBio, Shengyang, China), and anti-GAPDH (Multi Sciences, Hangzhou, China). Then, horseradish-peroxidase-conjugated anti-rabbit IgG was used as a second antibody. The immunoreactive proteins were exposed using an enhanced chemiluminescence detection reagent (WanleiBio, Shengyang, China). After sacrificing the mice and isolating the tumor tissue, Western blot was performed as previously described.
# MKN-45 cells = assay: Cell cycle distribution assay; assay type: cell-based, Human; conditions: 48 h; compared with the control group; n = 3
# Protocol: According to the cell cycle detection kit (Keygen) instructions, MKN-45 cells were collected and seeded in a six-well culture plate at the concentration 2 × 10^6/mL overnight. Then, the cells were washed with PBS and treated with peptide CM 7 at the indicated concentration for 48 h. The experiment was performed in triplicate. A MACS Quant flow cytometer (Miltenyi Biotec GmbH, Bergisch Gladbach, Germany) was used to detect the cell cycle profile, and FlowJo software version 7.6 (FlowJo LLC, Ashland, USA) was used to analyze the data.
substance,measurement,setting,value
"DQIIANN [CM 7, Novel peptide DQIIANN targeting the tyrosine kinase receptor c-Met]",Affinity to c-Met,human c-Met protein,specific binding to c-Met with high affinity
same,Inhibition of tumor growth versus vehicle (PBS),"MKN-45 tumor xenografts; 20 mg/kg s.c. twice a day, 28 days, n = 5–6",significantly inhibited tumor growth
same,Inhibition of tumor growth relative to Crizotinib,"MKN-45 tumor xenografts; CM 7 20 mg/kg s.c. twice a day vs Crizotinib 50 mg/kg by gavage daily, 28 days",weaker than the positive control group (Crizotinib)
same,Growth inhibition rate of tumor masses,"MKN-45 tumor xenografts; xenograft mouse model using MKN-45 cells, dose not printed with the value (5, 10, 20 mg/kg s.c. twice a day tested)",62%
same,Weight loss of mice,[1],no significant weight loss
same,Tolerability / toxicity,[1]; from body weight,well tolerated and slightly or nontoxic
same,Expression of E-cadherin,[2],increase the expression of E-cadherin
same,"Phosphorylation of c-Met, Akt and Erk","[2]; HGF 15 min, dose-dependent",effectively inhibit
same,Cell cycle arrest,MKN-45 cells,significantly arrested in the S phase
